For this test, the system named is fecal short-chain fatty acids. The test can be described thus: Fecal short-chain fatty acids of mice with hyperuricemia. Type of test: in vivo. Particulars: feces at the end of the experiment. The procedure:
24 healthy male KM mice with the weight of 38 to 44 g were randomly divided into four groups after a week of acclimatization, namely a control group, a hyperuricemia model group, an L. gasseri CCFM1133 intervention group (CCFM1133) and an allopurinol intervention group (allopurinol). Except the control group, 500 mg/kg BW hypoxanthine was given to the other groups every day by intragastric administration, and 100 mg/kg BW oteracil potassium was intraperitoneally injected to the other groups every day. At 1 h before processing with hypoxanthine and oteracil potassium, 0.4 mL of 30 g/L sucrose (a control solvent) was given to the control group and the hyperuricemia model group, L. gasseri CCFM1133 bacterial suspension (30 g/L sucrose solution containing L. gasseri CCFM1133 thallus) with the concentration of 1×10^9 CFU/mouse was given to the L. gasseri CCFM1133 intervention group, and 5 mg/kg BW allopurinol was given to the allopurinol group. […]
The short-chain fatty acids were separated by using an Rtx-Wax column. The short-chain fatty acids (acetic acid, propionic acid, isobutyric acid, butyric acid, isovaleric acid and valeric acid) were detected in a full scanning mode (the mass-to-charge ratio scanning range is 33 to 110). Characteristic ions of analyte standards were selected for quantitative analysis.

Take `Oc1ncnc2[nH]ncc12` [allopurinol]: the “Effect on fecal short-chain fatty acid levels (acetic, propionic, isobutyric, butyric, isovaleric and valeric acid)” value is “does not have much of the effect”.

These data come from patent US20240000871A1, “Lactobacillus gasseri capable of alleviating and treating hyperuricemia” (Jiangnan University, priority 2020, published 2024).
